Test results from patent US12258328B2, “6-membered heteroaryl-containing aminopyridine compounds as EGFR inhibitors” (YUHAN CORPORATION, priority 2021, dated 2025).
Read-outs that look alike come from different tables or passages of the source.

How the values were obtained:
EGFR L858R/C797S = EGFR L858R/C797S (Homo sapiens, UniProt P00533, C797S/L858R); assay: Biochemical EGFR kinase assay (Lance Ultra TR-FRET), double mutant L858R/C797S
Procedure, shortened: (§1)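 Enzyme reactions lasted 1 hour at room temperature with test compounds between 0.003 and 10 μM, followed by 10 mM EDTA quench.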

EGFR L858R/T790M/C797S = EGFR L858R/T790M/C797S (Homo sapiens, UniProt P00533, C797S/L858R/T790M); assay: Biochemical EGFR kinase assay (Lance Ultra TR-FRET), triple mutant L858R/T790M/C797S
EGFR L858R/T790M/C797S, sequence (P00533 25-1210 T790M/C797S/L858R): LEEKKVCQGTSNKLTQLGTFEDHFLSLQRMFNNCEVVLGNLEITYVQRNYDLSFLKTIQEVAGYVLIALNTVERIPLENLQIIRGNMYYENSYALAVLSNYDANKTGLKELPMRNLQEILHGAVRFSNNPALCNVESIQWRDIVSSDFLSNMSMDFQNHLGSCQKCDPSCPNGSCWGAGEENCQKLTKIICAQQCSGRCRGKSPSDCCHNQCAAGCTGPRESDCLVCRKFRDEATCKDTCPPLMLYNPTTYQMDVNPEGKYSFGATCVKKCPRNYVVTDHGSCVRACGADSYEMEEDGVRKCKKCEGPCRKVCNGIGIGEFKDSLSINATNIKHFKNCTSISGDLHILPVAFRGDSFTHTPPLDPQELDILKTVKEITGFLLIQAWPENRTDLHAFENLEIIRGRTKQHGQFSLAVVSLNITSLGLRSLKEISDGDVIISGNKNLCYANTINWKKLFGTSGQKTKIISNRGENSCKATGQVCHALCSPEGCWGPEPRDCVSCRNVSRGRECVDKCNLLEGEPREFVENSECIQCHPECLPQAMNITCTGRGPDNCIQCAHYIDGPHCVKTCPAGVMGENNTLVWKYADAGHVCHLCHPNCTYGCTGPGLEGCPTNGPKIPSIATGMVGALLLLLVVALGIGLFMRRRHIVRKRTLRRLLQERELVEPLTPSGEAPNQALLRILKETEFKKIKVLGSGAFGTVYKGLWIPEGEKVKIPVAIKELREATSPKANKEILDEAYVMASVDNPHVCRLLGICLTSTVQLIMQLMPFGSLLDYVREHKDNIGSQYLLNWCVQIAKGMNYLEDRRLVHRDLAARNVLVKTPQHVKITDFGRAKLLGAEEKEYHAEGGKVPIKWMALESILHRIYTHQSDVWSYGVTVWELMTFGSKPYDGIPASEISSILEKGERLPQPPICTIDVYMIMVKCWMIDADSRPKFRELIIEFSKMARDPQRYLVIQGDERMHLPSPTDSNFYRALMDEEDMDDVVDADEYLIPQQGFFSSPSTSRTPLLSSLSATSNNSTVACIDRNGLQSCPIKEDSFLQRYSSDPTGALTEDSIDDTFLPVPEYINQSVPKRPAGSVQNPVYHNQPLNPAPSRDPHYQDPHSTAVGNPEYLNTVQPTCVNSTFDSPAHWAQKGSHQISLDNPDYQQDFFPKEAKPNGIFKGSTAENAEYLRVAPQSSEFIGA
Procedure, shortened: as §1

EGFR wildtype = EGFR wildtype (Homo sapiens, UniProt P00533); assay: Biochemical EGFR kinase assay (Lance Ultra TR-FRET), wildtype
EGFR wildtype, sequence (P00533 25-1210): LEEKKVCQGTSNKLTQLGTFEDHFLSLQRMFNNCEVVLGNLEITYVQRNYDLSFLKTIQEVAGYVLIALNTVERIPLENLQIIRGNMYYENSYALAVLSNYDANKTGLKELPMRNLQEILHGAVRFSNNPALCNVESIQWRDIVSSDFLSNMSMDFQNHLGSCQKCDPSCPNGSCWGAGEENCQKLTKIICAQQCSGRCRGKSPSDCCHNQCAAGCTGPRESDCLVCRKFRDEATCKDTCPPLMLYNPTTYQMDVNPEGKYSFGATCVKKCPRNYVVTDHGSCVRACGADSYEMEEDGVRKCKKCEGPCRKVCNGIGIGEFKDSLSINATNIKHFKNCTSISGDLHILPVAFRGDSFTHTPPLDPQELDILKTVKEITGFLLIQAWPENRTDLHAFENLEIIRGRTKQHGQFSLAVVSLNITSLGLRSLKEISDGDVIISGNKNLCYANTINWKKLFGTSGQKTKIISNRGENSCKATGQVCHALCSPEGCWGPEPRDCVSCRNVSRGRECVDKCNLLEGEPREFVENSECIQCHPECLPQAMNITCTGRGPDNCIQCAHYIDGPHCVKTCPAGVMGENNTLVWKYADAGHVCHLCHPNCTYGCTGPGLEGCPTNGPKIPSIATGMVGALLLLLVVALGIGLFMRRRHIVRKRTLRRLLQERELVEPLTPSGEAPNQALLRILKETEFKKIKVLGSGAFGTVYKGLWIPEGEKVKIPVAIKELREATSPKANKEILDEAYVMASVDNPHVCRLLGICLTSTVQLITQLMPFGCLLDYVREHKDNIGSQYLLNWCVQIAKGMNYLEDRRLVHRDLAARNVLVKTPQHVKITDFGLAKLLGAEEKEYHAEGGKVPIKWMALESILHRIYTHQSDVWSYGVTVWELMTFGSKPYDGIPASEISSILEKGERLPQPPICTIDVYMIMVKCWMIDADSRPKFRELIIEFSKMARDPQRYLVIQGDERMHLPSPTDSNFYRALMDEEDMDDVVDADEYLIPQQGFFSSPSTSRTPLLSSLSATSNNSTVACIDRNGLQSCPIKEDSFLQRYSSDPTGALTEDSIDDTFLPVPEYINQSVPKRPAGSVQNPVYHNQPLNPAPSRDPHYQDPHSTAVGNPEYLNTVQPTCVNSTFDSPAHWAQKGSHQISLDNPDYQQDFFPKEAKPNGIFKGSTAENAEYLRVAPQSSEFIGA
Procedure, shortened: as §1

EGFR del19/C797S = EGFR del19/C797S (Homo sapiens, UniProt P00533, C797S/DEL746-750); assay: Biochemical EGFR kinase assay (Lance Ultra TR-FRET), double mutant del19/C797S
EGFR del19/C797S, sequence (P00533 with tags, fused parts or gaps DEL746-750/C797S): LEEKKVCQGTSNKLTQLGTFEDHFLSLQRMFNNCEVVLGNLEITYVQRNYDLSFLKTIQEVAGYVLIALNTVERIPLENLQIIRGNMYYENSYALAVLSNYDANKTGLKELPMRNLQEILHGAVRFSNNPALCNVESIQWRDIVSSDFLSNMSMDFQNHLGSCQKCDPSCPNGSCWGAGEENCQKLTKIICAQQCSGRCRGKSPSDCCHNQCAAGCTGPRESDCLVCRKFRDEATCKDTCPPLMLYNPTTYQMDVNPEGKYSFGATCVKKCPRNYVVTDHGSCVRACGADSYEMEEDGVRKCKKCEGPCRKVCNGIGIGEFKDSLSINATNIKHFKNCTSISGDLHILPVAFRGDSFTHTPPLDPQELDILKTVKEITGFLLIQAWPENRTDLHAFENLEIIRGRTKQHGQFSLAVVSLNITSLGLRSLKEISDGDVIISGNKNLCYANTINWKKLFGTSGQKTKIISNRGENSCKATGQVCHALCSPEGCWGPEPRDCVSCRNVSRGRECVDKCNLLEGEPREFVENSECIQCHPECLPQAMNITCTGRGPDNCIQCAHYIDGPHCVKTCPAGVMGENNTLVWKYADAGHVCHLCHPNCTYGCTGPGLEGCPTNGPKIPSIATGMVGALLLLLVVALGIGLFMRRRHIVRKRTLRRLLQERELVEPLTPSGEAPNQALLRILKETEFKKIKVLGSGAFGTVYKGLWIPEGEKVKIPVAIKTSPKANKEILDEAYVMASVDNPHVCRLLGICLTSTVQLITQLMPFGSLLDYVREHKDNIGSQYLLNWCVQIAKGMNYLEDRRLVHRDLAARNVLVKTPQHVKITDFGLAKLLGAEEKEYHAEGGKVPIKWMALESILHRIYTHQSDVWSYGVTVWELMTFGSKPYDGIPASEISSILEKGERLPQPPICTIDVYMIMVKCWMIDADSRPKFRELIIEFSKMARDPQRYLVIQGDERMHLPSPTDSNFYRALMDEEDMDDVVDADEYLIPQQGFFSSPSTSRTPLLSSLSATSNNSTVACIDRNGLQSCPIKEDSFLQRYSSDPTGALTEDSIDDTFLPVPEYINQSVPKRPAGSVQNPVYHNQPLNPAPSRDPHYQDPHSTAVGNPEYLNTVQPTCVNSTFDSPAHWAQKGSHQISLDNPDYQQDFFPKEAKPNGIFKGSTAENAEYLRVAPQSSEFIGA
Procedure, shortened: as §1

EGFR del19/T790M/C797S = EGFR del19/T790M/C797S (Homo sapiens, UniProt P00533, C797S/DEL746-750/T790M); assay: Biochemical EGFR kinase assay (Lance Ultra TR-FRET), triple mutant del19/T790M/C797S
Procedure, shortened: as §1

[1] = IC50 L858R/C797S (nM) 100 μM ATP, 100 μM ATP
[2] = IC50 L858R/T790M/C797S (nM) 100 μM ATP, 100 μM ATP
[3] = Km ATP, read-out: IC50 L858R/T790M/C797S (nM) Km ATP
[4] = IC50 WT (nM) 100 μM ATP, 100 μM ATP
[5] = Km ATP, read-out: IC50 WT (nM) Km ATP
[6] = IC50 del19/C797S (nM) 100 μM ATP, 100 μM ATP
[7] = Km ATP, read-out: IC50 del19/C797S (nM) Km ATP
[8] = IC50 del19/T790M/C797S (nM) 100 μM ATP, 100 μM ATP
[9] = Km ATP, read-out: IC50 del19/T790M/C797S (nM) Km ATP
[10] = ATP at Km, read-out: IC50 L858R/C797S, Km ATP
[11] = ATP at Km, read-out: IC50 L858R/T790M/C797S, Km ATP
[12] = IC50 L858R/T790M/C797S, 100 μM ATP
[13] = ATP at Km, read-out: IC50 WT, Km ATP
[14] = ATP at Km, read-out: IC50 del19/C797S, Km ATP
[15] = ATP at Km, read-out: IC50 del19/T790M/C797S, Km ATP
[16] = IC50 del19/T790M/C797S, 100 μM ATP
[17] = Km ATP, read-out: IC50 L858R/C797S (nM) Km ATP

EGFR L858R/C797S, sequence (P00533 25-1210 C797S/L858R): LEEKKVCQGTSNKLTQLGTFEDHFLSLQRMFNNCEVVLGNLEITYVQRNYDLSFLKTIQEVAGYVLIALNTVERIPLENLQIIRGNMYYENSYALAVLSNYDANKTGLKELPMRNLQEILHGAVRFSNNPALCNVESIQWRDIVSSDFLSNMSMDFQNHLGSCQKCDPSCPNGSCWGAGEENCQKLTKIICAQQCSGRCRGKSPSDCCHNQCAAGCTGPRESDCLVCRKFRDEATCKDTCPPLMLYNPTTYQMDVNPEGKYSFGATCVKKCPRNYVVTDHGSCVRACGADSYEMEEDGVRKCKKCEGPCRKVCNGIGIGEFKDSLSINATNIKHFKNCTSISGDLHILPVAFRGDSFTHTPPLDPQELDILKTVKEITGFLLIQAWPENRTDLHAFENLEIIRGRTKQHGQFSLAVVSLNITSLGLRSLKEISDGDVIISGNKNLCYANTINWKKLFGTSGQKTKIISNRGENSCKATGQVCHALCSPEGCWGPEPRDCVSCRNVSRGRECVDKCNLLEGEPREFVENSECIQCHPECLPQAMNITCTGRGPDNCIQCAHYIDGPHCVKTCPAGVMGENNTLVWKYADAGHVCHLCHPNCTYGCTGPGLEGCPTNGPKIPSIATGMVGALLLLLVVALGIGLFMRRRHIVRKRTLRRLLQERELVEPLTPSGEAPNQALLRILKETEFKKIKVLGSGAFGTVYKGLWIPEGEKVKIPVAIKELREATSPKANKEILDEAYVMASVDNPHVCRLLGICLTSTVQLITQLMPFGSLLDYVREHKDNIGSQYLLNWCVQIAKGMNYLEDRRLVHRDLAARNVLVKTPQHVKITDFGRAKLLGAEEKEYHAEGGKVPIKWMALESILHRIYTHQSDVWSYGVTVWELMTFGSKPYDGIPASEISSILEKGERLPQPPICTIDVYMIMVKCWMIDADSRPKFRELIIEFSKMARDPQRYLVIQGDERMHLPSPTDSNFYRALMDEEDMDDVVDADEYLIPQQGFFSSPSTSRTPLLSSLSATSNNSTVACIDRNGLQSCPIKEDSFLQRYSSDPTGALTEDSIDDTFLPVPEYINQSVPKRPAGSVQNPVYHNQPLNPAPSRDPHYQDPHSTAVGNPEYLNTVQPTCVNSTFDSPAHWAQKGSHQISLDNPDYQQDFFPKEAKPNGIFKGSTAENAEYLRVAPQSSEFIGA

Row | IC50 (EGFR L858R/C797S; [1]) [nM] | IC50 (EGFR L858R/T790M/C797S; [2]) [nM] | IC50 (EGFR L858R/T790M/C797S; [3]) [nM] | IC50 (EGFR wildtype; [4]) [nM] | IC50 (EGFR wildtype; [5]) [nM] | IC50 (EGFR del19/C797S; [6]) [nM] | IC50 (EGFR del19/C797S; [7]) [nM] | IC50 (EGFR del19/T790M/C797S; [8]) [nM] | IC50 (EGFR del19/T790M/C797S; [9]) [nM] | IC50 (EGFR L858R/C797S; [10]) [nM] | IC50 (EGFR L858R/C797S; IC50 L858R/C797S, 100 μM ATP) [nM] | IC50 (EGFR L858R/T790M/C797S; [11]) [nM] | IC50 (EGFR L858R/T790M/C797S; [12]) [nM] | IC50 (EGFR wildtype; [13]) [nM] | IC50 (EGFR wildtype; IC50 WT, 100 μM ATP) [nM] | IC50 (EGFR del19/C797S; [14]) [nM] | IC50 (EGFR del19/C797S; IC50 del19/C797S, 100 μM ATP) [nM] | IC50 (EGFR del19/T790M/C797S; [15]) [nM] | IC50 (EGFR del19/T790M/C797S; [16]) [nM] | IC50 (EGFR L858R/C797S; [17]) [nM] | SMILES
1 | – | – | – | – | – | – | – | – | – | 0.5 | 1.8 | 0.1 | 0.4 | 2.2 | 1040 | 0.5 | 0.6 | 0.3 | 0.4 | – | CC(C)(O)[C@H]1CC[C@@H](Nc2cc(Nc3ccnc(-c4cnn(S(=O)(=O)C5CC5)c4)n3)ncc2-c2ccc(C(=O)N3CCOCC3)cn2)CC1 [Example 201, (6′-((2-(1-(Cyclopropylsulfonyl)-1H-pyrazol-4-yl)pyrimidin-4-yl)amino)-4′-(((1s,4s)-4-(2-hydroxypropan-2-yl)cyclohexyl)amino)-[2,3′-bipyridin]-5-yl)(morpholino)methanone]
2 | – | – | – | – | – | – | – | – | – | – | 7.8 | – | 0.5 | – | 6510 | – | 2 | – | 0.6 | – | O=S(=O)(C1CC1)n1cc(-c2nccc(Nc3cc(N[C@H]4CC[C@@H](CO)CC4)c(-c4ccnc(N[C@H]5CC[C@@H](CO)CC5)n4)cn3)n2)cn1 [Example 192, ((1s,4s)-4-((4-(6-((2-(1-(Cyclopropylsulfonyl)-1H-pyrazol-4-yl)pyrimidin-4-yl)amino)-4-(((1s,4s)-4-(hydroxymethyl)cyclohexyl)amino)pyridin-3-yl)pyrimidin-2-yl)amino)cyclohexyl)methanol]
3 | – | – | – | – | – | – | – | – | – | 0.2 | 0.6 | 0.1 | 0.2 | 0.6 | 134 | 0.3 | 0.3 | 0.1 | 0.2 | – | O=C(c1ccc(-c2cnc(Nc3ccnc(-c4cnn(S(=O)(=O)C5CC5)c4)n3)cc2N[C@H]2CC[C@@H](CO)CC2)nc1)N1CCOCC1 [Example 200, (6′-((2-(1-(Cyclopropylsulfonyl)-1H-pyrazol-4-yl)pyrimidin-4-yl)amino)-4′-(((1s,4s)-4-(hydroxymethyl)cyclohexyl)amino)-[2,3′-bipyridin]-5-yl)(morpholino)methanone]
4 | – | – | – | – | – | – | – | – | – | 3 | 32.1 | – | 1.9 | 111 | > 10000 | 6.7 | 20.3 | 2 | 8.3 | – | C[C@]1(O)CC[C@@H](Nc2cc(Nc3ccnc(-c4cnn(S(=O)(=O)C5CC5)c4)n3)ncc2-c2cnc(F)cn2)CC1 [Example 185, (1s,4s)-4-((2-((2-(1-(Cyclopropylsulfonyl)-1H-pyrazol-4-yl)pyrimidin-4-yl)amino)-5-(5-fluoropyrazin-2-yl)pyridin-4-yl)amino)-1-methylcyclohexan-1-ol]

The remaining lines, values behind:

Row | SMILES | IC50 (EGFR L858R/C797S; [1]) [nM] | IC50 (EGFR L858R/T790M/C797S; [2]) [nM] | IC50 (EGFR L858R/T790M/C797S; [3]) [nM] | IC50 (EGFR wildtype; [4]) [nM] | IC50 (EGFR wildtype; [5]) [nM] | IC50 (EGFR del19/C797S; [6]) [nM] | IC50 (EGFR del19/C797S; [7]) [nM] | IC50 (EGFR del19/T790M/C797S; [8]) [nM] | IC50 (EGFR del19/T790M/C797S; [9]) [nM] | IC50 (EGFR L858R/C797S; [10]) [nM] | IC50 (EGFR L858R/C797S; IC50 L858R/C797S, 100 μM ATP) [nM] | IC50 (EGFR L858R/T790M/C797S; [11]) [nM] | IC50 (EGFR L858R/T790M/C797S; [12]) [nM] | IC50 (EGFR wildtype; [13]) [nM] | IC50 (EGFR wildtype; IC50 WT, 100 μM ATP) [nM] | IC50 (EGFR del19/C797S; [14]) [nM] | IC50 (EGFR del19/C797S; IC50 del19/C797S, 100 μM ATP) [nM] | IC50 (EGFR del19/T790M/C797S; [15]) [nM] | IC50 (EGFR del19/T790M/C797S; [16]) [nM] | IC50 (EGFR L858R/C797S; [17]) [nM]
5 | CN(C)C[C@H]1CC[C@@H](Nc2cc(Nc3ccnc(-c4cnn(S(=O)(=O)C5CC5)c4)n3)ncc2-c2ccc(N3CCC(F)(F)CC3)nn2)CC1 [Example 73, N^2-(2-(1-(Cyclopropylsulfonyl)-1H-pyrazol-4-yl)pyrimidin-4-yl)-5-(6-(4,4-difluoropiperidin-1-yl)pyridazin-3-yl)-N^4-((1s,4s)-4-((dimethylamino)methyl)cyclohexyl)pyridine-2,4-diamine] | 16.3 | 0.5 | 0.2 | 562 | 2.2 | 0.5 | 0.4 | 0.7 | 0.4 | – | – | – | – | – | – | – | – | – | – | –
6 | CN(C)C[C@H]1CC[C@@H](Nc2cc(Nc3ccnc(-c4cnn(S(=O)(=O)C5CC5)c4)n3)ncc2-c2cc(N3CCC(F)(F)CC3)ccn2)CC1 [Example 101, N^6′-(2-(1-(Cyclopropylsulfonyl)-1H-pyrazol-4-yl)pyrimidin-4-yl)-4-(4,4-difluoropiperidin-1-yl)-N^4′-((1s,4s)-4-((dimethylamino)methyl)cyclohexyl)-[2,3′-bipyridine]-4′,6′-diamine] | 14.4 | 0.7 | 0.4 | 575 | 2.2 | 2.4 | 2.1 | 0.9 | 1.7 | – | – | – | – | – | – | – | – | – | – | 2.1
7 | CC(C)(O)c1ccc(-c2cnc(Nc3ccnc(-c4cnn(S(=O)(=O)C5CC5)c4)n3)cc2N[C@H]2CC[C@@H](C(C)(C)O)CC2)nc1 [Example 169, 2-(6′-((2-(1-(Cyclopropylsulfonyl)-1H-pyrazol-4-yl)pyrimidin-4-yl)amino)-4′-(((1s,4s)-4-(2-hydroxypropan-2-yl)cyclohexyl)amino)-[2,3′-bipyridin]-5-yl)propan-2-ol] | – | – | – | – | – | – | – | – | – | 0.4 | – | – | 0.7 | – | 416 | 0.5 | 1.3 | 1.3 | 0.9 | –
8 | CC(C)(O)c1ccnc(-c2cnc(Nc3ccnc(-c4cnn(S(=O)(=O)C5CC5)c4)n3)cc2N[C@H]2CC[C@@H](C(C)(C)O)CC2)c1 [Example 109, 2-(6′-((2-(1-(Cyclopropylsulfonyl)-1H-pyrazol-4-yl)pyrimidin-4-yl)amino)-4′-(((1s,4s)-4-(2-hydroxypropan-2-yl)cyclohexyl)amino)-[2,3′-bipyridin]-4-yl)propan-2-ol] | 11.1 | 0.5 | 0.6 | 1360 | 5.2 | 6.4 | 0.8 | – | 2 | – | – | – | – | – | – | – | – | – | – | 0.1
9 | CC(C)Nc1cc(Nc2ccnc(-c3cnn(S(=O)(=O)C4CC4)c3)n2)ncc1-c1cnc(OCCN(C)C)cn1 [Example 122, N^2-(2-(1-(Cyclopropylsulfonyl)-1H-pyrazol-4-yl)pyrimidin-4-yl)-5-(5-(2-(dimethylamino)ethoxy)pyrazin-2-yl)-N^4-isopropylpyridine-2,4-diamine] | – | – | 0.1 | – | 7.4 | – | 9.7 | – | 0.3 | – | – | – | – | – | – | – | – | – | – | 4.3
10 | CS(=O)(=O)c1ccc(-c2cnc(Nc3ccnc(-c4cnn(S(=O)(=O)C5CC5)c4)n3)cc2N[C@H]2CC[C@@H](NCCF)CC2)nc1 [Example 157, N^6′-(2-(1-(Cyclopropylsulfonyl)-1H-pyrazol-4-yl)pyrimidin-4-yl)-N^4′-((1s,4s)-4-((2-fluoroethyl)amino)cyclohexyl)-5-(methylsulfonyl)-[2,3′-bipyridine]-4′,6′-diamine] | – | – | – | – | – | – | – | – | – | 0.8 | 11.2 | 0.1 | 0.1 | 6.9 | 2930 | 0.8 | 0.6 | 0.1 | 0.1 | –
11 | CC(C)(O)c1ccc(-c2cnc(Nc3ccnc(-c4cnn(S(=O)(=O)C5CC5)c4)n3)cc2NC2CCC(F)(F)CC2)nc1 [Example 175, 2-(6′-((2-(1-(Cyclopropylsulfonyl)-1H-pyrazol-4-yl)pyrimidin-4-yl)amino)-4′-((4,4-difluorocyclohexyl)amino)-[2,3′-bipyridin]-5-yl)propan-2-ol] | – | – | – | – | – | – | – | – | – | 3.9 | – | 1.1 | – | 90.3 | – | 20.4 | – | 2.4 | – | –
